ChEMBL document CHEMBL1201862, “PubChem BioAssay data set” (2004)
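96-well plates; 48 h exposure; 5 concentrations. Endpoints by linear interpolation between flanking doses. Not reached: highest tested concentration assigned. At the GI50, growth is halved.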 Calls of active or inactive are those of the source. No stated cut-off is given here; in the data, active = GI50 up to about 1.1 µM and inactive = higher.

Key:
Experiment in all cases: growth of human tumour cells (NCI), 48 h
HCT-116 = test system: HCT-116
UO-31 = test system: UO-31
K562 = test system: K562
RXF 393 = test system: RXF 393
A549 = test system: A549
Hs-578T = test system: Hs-578T
NCI/ADR-RES = test system: NCI/ADR-RES
NCI-H226 = test system: NCI-H226
KM12 = test system: KM12
HL-60 = test system: HL-60
PC-3 = test system: PC-3
MDA-MB-231 = test system: MDA-MB-231
CAKI-1 = test system: CAKI-1
T47D = test system: T47D
U-251 = test system: U-251
SF-268 = test system: SF-268
IGROV-1 = test system: IGROV-1
Malme-3M = test system: Malme-3M
OVCAR-8 = test system: OVCAR-8
HOP-62 = test system: HOP-62
LOX IMVI = test system: LOX IMVI
SW-620 = test system: SW-620
BT-549 = test system: BT-549
RPMI-8226 = test system: RPMI-8226
OVCAR-4 = test system: OVCAR-4
OVCAR-3 = test system: OVCAR-3
OVCAR-5 = test system: OVCAR-5
HCT-15 = test system: HCT-15
M14 = test system: M14
ACHN = test system: ACHN
DU-145 = test system: DU-145
HCC 2998 = test system: HCC 2998
NCI-H460 = test system: NCI-H460
SK-MEL-28 = test system: SK-MEL-28
UACC-257 = test system: UACC-257
MDA-N = test system: MDA-N
HT-29 = test system: HT-29
786-0 = test system: 786-0
MOLT-4 = test system: MOLT-4
TK-10 = test system: TK-10
SK-MEL-5 = test system: SK-MEL-5
SN12C = test system: SN12C
UACC-62 = test system: UACC-62
NCI-H23 = test system: NCI-H23
SR = test system: SR
NCI-H522 = test system: NCI-H522
A498 = test system: A498
SK-MEL-2 = test system: SK-MEL-2
SNB-19 = test system: SNB-19
EKVX = test system: EKVX
HOP-92 = test system: HOP-92
SF-295 = test system: SF-295
MDA-MB-435 = test system: MDA-MB-435
CCRF-CEM = test system: CCRF-CEM
SNB-75 = test system: SNB-75
SK-OV-3 = test system: SK-OV-3
COLO 205 = test system: COLO 205
SF-539 = test system: SF-539

With `CC(c1ccccc1)N1CCN(C(C)c2ccccc2)CC1` (configuration not stated) the GI50 (HCT-116) was 43.5 µM (inactive), the GI50 (UO-31) was > 100 µM (inactive) and the GI50 (K562) was 27.7 µM (inactive). The GI50 (RXF 393) was 79.6 µM (inactive), the GI50 (A549) was > 100 µM (inactive) and the GI50 (Hs-578T) was > 100 µM (inactive). The GI50 (NCI/ADR-RES) was > 100 µM (inactive), the GI50 (NCI-H226) was > 100 µM (inactive) and the GI50 (KM12) was > 100 µM (inactive). The GI50 (HL-60) was > 100 µM (inactive), the GI50 (PC-3) was > 100 µM (inactive) and the GI50 (MDA-MB-231) was > 100 µM (inactive). For the same compound, the GI50 (CAKI-1) was > 100 µM (inactive), the GI50 (T47D) was > 100 µM (inactive) and the GI50 (U-251) was > 100 µM (inactive). For the same compound, the GI50 (SF-268) was > 100 µM (inactive), the GI50 (IGROV-1) was > 100 µM (inactive) and the GI50 (Malme-3M) was 56.6 µM (inactive). The GI50 (OVCAR-8) was > 100 µM (inactive), the GI50 (HOP-62) was > 100 µM (inactive) and the GI50 (LOX IMVI) was > 100 µM (inactive). The GI50 (SW-620) was > 100 µM (inactive), the GI50 (BT-549) was > 100 µM (inactive) and the GI50 (RPMI-8226) was 26.1 µM (inactive). The GI50 (OVCAR-4) was > 100 µM (inactive), the GI50 (OVCAR-3) was 35.4 µM (inactive) and the GI50 (OVCAR-5) was > 100 µM (inactive). For the same compound, the GI50 (HCT-15) was 57.1 µM, the GI50 (M14) was 22.8 µM (inactive) and the GI50 (ACHN) was > 100 µM (inactive). The GI50 (DU-145) was > 100 µM (inactive), the GI50 (HCC 2998) was 20.1 µM (inactive) and the GI50 (NCI-H460) was 65.2 µM (inactive). For the same compound, the GI50 (SK-MEL-28) was 29 µM (inactive), the GI50 (UACC-257) was 68.7 µM (inactive) and the GI50 (MDA-N) was 45.6 µM (inactive). For the same compound, the GI50 (HT-29) was 44.8 µM (inactive), the GI50 (786-0) was > 100 µM (inactive) and the GI50 (MOLT-4) was 39.5 µM (inactive). The GI50 (TK-10) was > 100 µM (inactive), the GI50 (SK-MEL-5) was 17.1 µM (inactive) and the GI50 (SN12C) was > 100 µM (inactive). The GI50 (UACC-62) was 40.8 µM (inactive), the GI50 (NCI-H23) was > 100 µM (inactive) and the GI50 (SR) was 35.8 µM (inactive). The GI50 (NCI-H522) was > 100 µM (inactive), the GI50 (A498) was 77.4 µM (inactive) and the GI50 (SK-MEL-2) was 35.2 µM (inactive). For the same compound, the GI50 (SNB-19) was > 100 µM (inactive), the GI50 (EKVX) was > 100 µM (inactive) and the GI50 (HOP-92) was 31.6 µM (inactive). The GI50 (SF-295) was > 100 µM (inactive) and the GI50 (MDA-MB-435) was 80.4 µM (inactive).
In the case of `Clc1nc(Nc2nc3ccccc3[nH]2)nc(Cl)c1-c1ccccc1`, the GI50 (HCT-116) is reported as 21.1 µM (inactive), the GI50 (UO-31) is reported as 20.8 µM (inactive) and the GI50 (K562) is reported as 25.2 µM (inactive). For the same compound, the GI50 (RXF 393) was 16.9 µM (inactive), the GI50 (A549) was 34.7 µM (inactive) and the GI50 (Hs-578T) was 21.5 µM (inactive). For the same compound, the GI50 (NCI/ADR-RES) was 27.7 µM (inactive), the GI50 (NCI-H226) was 20.5 µM (inactive) and the GI50 (CCRF-CEM) was 19.5 µM (inactive). For the same compound, the GI50 (KM12) was 40.8 µM (inactive), the GI50 (HL-60) was 36.1 µM (inactive) and the GI50 (PC-3) was 23 µM (inactive). For the same compound, the GI50 (MDA-MB-231) was 12.7 µM (inactive), the GI50 (CAKI-1) was 31.1 µM (inactive) and the GI50 (T47D) was 40.7 µM (inactive). The GI50 (U-251) was 15.9 µM (inactive), the GI50 (SF-268) was 33 µM (inactive) and the GI50 (IGROV-1) was 19 µM (inactive). The GI50 (Malme-3M) was 19.1 µM (inactive), the GI50 (SNB-75) was 9.38 µM (inactive) and the GI50 (OVCAR-8) was 27.7 µM (inactive). For the same compound, the GI50 (SK-OV-3) was 22.1 µM (inactive), the GI50 (COLO 205) was 19.1 µM (inactive) and the GI50 (SW-620) was 11.2 µM (inactive). For the same compound, the GI50 (BT-549) was 16.5 µM (inactive), the GI50 (RPMI-8226) was 34.3 µM (inactive) and the GI50 (OVCAR-4) was 14.8 µM (inactive). The GI50 (OVCAR-5) was 28.3 µM (inactive), the GI50 (HCT-15) was 14.4 µM and the GI50 (M14) was 35.1 µM (inactive). The GI50 (ACHN) was 15.8 µM (inactive), the GI50 (DU-145) was 74.3 µM (inactive) and the GI50 (NCI-H460) was 12.2 µM (inactive). For the same compound, the GI50 (SK-MEL-28) was 11.7 µM (inactive), the GI50 (UACC-257) was 29.7 µM (inactive) and the GI50 (MDA-N) was 10.3 µM (inactive). The GI50 (HT-29) was 16.8 µM (inactive), the GI50 (786-0) was 16.1 µM (inactive) and the GI50 (MOLT-4) was 76 µM (inactive). The GI50 (TK-10) was 39.4 µM (inactive), the GI50 (SK-MEL-5) was 20.9 µM (inactive) and the GI50 (SN12C) was 12.6 µM (inactive). The GI50 (UACC-62) was 18.1 µM (inactive), the GI50 (NCI-H23) was 17.3 µM (inactive) and the GI50 (SR) was 29.1 µM (inactive). For the same compound, the GI50 (NCI-H522) was 17.3 µM (inactive), the GI50 (A498) was 21.5 µM (inactive) and the GI50 (SK-MEL-2) was 23.3 µM (inactive). For the same compound, the GI50 (SNB-19) was 36.1 µM (inactive), the GI50 (EKVX) was 23.6 µM (inactive) and the GI50 (HOP-92) was 8.65 µM (inactive). The GI50 (SF-539) was 18.1 µM (inactive), the GI50 (SF-295) was 18 µM (inactive) and the GI50 (MDA-MB-435) was 29.3 µM (inactive).
